In patent publication US10618901B2 (GlaxoSmithKline Intellectual Property Development Limited, priority 2014, dated 2020):
Where two headings read alike, the source gives them in different places.

Biological target: T1, LRRK2 Ser935 phosphorylation in SH-SY5Y cells over-expressing recombinant full length LRRK2 (Homo sapiens, UniProt Q5S007)
T1 construct: A BacMam virus expressing full length recombinant LRRK2 was purchased from Invitrogen; host or cells: SH-SY5Y (BacMam transduction)
Experiment: Recombinant cellular LRRK2 AlphaScreen assay
Assay type: cell-based
Method in brief: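 SH-SY5Y cells transduced with BacMam full-length LRRK2 (MOI 50, 24 h) were treated with compound, top final 10 uM, for 60 min at 37° C. Lysates were assayed by AlphaScreen for pSer935 and total LRRK2. Dose-response fitted to a sigmoidal model.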

[1] = LRRK2 Ser935 phosphorylation, 60 minutes, read-out: recombinant cellcular LRRK2 alphaScreen assay (pIC50) (converted)
[2] = read-out: pIC50 in the recombinant cellular LRRK2 alphaScreen assay (converted)
[3] = LRRK2 Ser935 phosphorylation, 60 minutes

T1 sequence (Q5S007 whole entry): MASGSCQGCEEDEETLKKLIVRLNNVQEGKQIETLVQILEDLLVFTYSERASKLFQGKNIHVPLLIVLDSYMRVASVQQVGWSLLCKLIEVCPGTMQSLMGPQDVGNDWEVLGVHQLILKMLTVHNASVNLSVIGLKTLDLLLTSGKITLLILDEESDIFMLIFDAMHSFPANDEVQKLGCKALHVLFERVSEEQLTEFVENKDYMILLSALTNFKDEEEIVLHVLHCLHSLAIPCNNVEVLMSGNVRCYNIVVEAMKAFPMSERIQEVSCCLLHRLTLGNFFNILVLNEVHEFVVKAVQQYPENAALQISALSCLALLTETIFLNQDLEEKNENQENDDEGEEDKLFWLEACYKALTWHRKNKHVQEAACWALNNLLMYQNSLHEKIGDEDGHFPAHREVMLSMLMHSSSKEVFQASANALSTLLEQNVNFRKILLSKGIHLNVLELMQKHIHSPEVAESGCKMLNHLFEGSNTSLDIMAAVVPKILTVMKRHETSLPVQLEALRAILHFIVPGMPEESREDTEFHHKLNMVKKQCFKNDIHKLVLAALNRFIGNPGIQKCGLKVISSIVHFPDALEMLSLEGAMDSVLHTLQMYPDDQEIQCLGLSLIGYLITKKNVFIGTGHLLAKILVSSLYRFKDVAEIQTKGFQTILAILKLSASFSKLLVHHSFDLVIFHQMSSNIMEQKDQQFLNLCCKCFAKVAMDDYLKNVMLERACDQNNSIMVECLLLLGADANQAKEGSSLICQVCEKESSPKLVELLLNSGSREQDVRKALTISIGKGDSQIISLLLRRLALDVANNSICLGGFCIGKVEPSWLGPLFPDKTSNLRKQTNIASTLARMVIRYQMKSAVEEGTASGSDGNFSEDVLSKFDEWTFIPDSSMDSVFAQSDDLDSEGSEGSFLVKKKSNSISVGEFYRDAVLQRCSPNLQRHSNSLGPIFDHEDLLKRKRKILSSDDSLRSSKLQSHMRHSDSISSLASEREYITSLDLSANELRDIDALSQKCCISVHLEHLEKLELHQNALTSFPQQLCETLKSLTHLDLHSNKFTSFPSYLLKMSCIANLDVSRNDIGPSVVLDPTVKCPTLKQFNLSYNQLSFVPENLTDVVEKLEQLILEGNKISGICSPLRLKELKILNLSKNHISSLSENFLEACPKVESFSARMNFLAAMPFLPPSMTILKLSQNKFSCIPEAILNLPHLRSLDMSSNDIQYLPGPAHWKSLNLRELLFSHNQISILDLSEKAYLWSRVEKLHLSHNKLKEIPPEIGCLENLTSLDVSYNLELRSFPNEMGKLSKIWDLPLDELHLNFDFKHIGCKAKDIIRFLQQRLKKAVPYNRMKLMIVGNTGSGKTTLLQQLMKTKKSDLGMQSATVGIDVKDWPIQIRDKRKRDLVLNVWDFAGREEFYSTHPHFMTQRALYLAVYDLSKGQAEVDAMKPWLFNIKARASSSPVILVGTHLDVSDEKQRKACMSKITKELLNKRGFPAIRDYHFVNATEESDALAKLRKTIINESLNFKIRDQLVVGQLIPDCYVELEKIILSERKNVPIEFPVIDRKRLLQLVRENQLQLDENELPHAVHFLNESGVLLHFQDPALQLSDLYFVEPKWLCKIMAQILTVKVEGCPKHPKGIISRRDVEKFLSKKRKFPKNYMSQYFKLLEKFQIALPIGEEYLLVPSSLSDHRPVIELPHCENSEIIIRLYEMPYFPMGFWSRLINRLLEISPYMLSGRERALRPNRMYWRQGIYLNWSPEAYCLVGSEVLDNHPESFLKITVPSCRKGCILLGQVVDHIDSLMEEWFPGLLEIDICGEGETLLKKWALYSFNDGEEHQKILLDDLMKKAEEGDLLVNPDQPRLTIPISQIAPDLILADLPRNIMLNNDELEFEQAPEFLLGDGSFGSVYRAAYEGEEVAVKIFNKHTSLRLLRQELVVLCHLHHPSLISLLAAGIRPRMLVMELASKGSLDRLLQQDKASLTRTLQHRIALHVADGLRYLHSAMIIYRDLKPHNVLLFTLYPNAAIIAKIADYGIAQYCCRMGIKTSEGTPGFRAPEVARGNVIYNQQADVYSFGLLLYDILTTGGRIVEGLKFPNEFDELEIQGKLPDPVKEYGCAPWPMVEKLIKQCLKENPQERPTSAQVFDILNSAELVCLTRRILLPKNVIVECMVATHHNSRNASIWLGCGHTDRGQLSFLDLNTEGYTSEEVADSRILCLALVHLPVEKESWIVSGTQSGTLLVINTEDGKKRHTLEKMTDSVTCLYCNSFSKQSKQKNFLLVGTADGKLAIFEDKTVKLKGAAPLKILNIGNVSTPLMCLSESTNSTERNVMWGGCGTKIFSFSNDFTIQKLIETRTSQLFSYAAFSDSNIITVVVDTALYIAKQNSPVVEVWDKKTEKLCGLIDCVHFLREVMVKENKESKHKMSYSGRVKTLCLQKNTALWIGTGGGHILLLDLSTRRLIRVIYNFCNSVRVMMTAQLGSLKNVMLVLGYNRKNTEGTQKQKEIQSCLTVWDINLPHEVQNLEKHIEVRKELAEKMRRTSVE

Compound	IC50 [1] [nM]	IC50 [2] [nM]	recombinant cellcular LRRK2 alphaScreen assay (pIC50) [3]
CCOc1nc(Nc2cnn(C3CCN(C)C3)c2C)nc2[nH]ccc12 (single isomer, unassigned) [Example E14, 4-ethoxy-N-(5-methyl-1-(1-methylpyrrolidin-3-yl)-1H-pyrazol-4-yl)-7H-pyrrolo-[2,3-d]-pyrimidin-2-amine]	63.1	≤ 100	
trans-2-(4-((4-ethoxy-7H-pyrrolo-[2,3-d]pyrimidin-2-yl)amino)-5-methyl-1H-pyrazol-1-yl)-cyclopentanol [Example E41]			7.8
trans-2-(4-((4-ethoxy-7H-pyrrolo-[2,3-d]pyrimidin-2-yl)amino)-5-methyl-1H-pyrazol-1-yl)-cyclopentanol [Example E40]			7.8
CCOc1nc(Nc2cnn(C3CCOCC3)c2C2CC2)nc2[nH]ccc12 [Example E44, N-(5-cyclopropyl-1-(tetrahydro-2H-pyran-4-yl)-1H-pyrazol-4-yl)-4-ethoxy-7H-pyrrolo-[2,3-d]pyrimidin-2-amine]	63.1	≤ 100	
trans-2-(5-chloro-4-((4-ethoxy-7H-pyrrolo-[2,3-d]-pyrimidin-2-yl)amino)-1H-pyrazol-1-yl)-cyclopentanol [Example E37]			7.6
CCOc1nc(Nc2cnn(CCN3CCOCC3)c2C)nc2[nH]ccc12 [Example E45, 4-ethoxy-N-(5-methyl-1-(2-morpholinoethyl)-1H-pyrazol-4-yl)-7H-pyrrolo-[2,3-d]pyrimidin-2-amine]	20	≤ 100	
CCOc1nc(Nc2cnn(CCOC)c2Cl)nc2[nH]ccc12 [Example E21, N-(5-chloro-1-(2-methoxyethyl)-1H-pyrazol-4-yl)-4-ethoxy-7H-pyrrolo-[2,3-d]-pyrimidin-2-amine]		≤ 100	
CCOc1nc(Nc2cnn(C3CC(N4CCOCC4)C3)c2C)nc2[nH]ccc12 (stereo not shown) [Example E86, 4-ethoxy-N-(5-methyl-1-(3-morpholinocyclobutyl)-1H-pyrazol-4-yl)-7H-pyrrolo[2,3-d] pyrimidin-2-amine]	39.8	≤ 100	
CCOc1nc(Nc2cnn(CC(C)(C)O)c2C)nc2[nH]ccc12 [Example E3, 1-(4-((4-ethoxy-7H-pyrrolo-[2,3-d]pyrimidin-2-yl)amino)-5-methyl-1H-pyrazol-1-yl)-2-methylpropan-2-ol]	79.4	≤ 100	
CCOc1nc(Nc2cnn(C3CCCC3(C)O)c2C)nc2[nH]ccc12 (racemic) [Example E70, Trans-2-(4-((4-ethoxy-7H-pyrrolo-[2,3-d]pyrimidin-2-yl)amino)-5-methyl-1H-pyrazol-1-yl)-1-methylcyclopentanol]		≤ 100	
cis-3-(4-((4-ethoxy-7H-pyrrolo[2,3-d]pyrimidin-2-yl)amino)-5-methyl-1H-pyrazol-1-yl)cyclopentanol [Example E56]			7.8
CCOc1nc(Nc2cnn(C3CCN(C4COC4)C3)c2C)nc2[nH]ccc12 (single isomer, unassigned) [Example E67, 4-ethoxy-N-(5-methyl-1-(1-(oxetan-3-yl)-pyrrolidin-3-yl)-1H-pyrazol-4-yl)-7H-pyrrolo-[2,3-d]pyrimidin-2-amine]		≤ 100	
CCOc1nc(Nc2cnn(C3CC(O)C3)c2C)nc2[nH]ccc12 (stereo not shown) [Example E52, 3-(4-((4-ethoxy-7H-pyrrolo-[2,3-d]-pyrimidin-2-yl)-amino)-5-methyl-1H-pyrazol-1-yl)cyclo-butanol]	12.6	≤ 100	
trans-2-(5-chloro-4-((4-ethoxy-7H-pyrrolo-[2,3-d]-pyrimidin-2-yl)amino)-1H-pyrazol-1-yl)cyclopentanol [Example E38]			7.6

Continued, values first:

IC50 [1] [nM]	IC50 [2] [nM]	recombinant cellcular LRRK2 alphaScreen assay (pIC50) [3]	Compound
25.1	≤ 100		CCOc1nc(Nc2cnn(C3CCOCC3C)c2C)nc2[nH]ccc12 (single isomer, unassigned) [Example E113, (cis)-4-ethoxy-N-(5-methyl-1-(3-methyltetrahydro-2H-pyran-4-yl)-1H-pyrazol-4-yl)-7H-pyrrolo[2,3-d]pyrimidin-2-amine]
31.6	≤ 100		CCOc1nc(Nc2cnn(CCN3CCO[C@H](C(F)F)C3)c2C)nc2[nH]ccc12 [Example E100, (S)—N-(1-(2-(2-(difluoromethyl)morpholino)ethyl)-5-methyl-1H-pyrazol-4-yl)-4-ethoxy-7H-pyrrolo[2,3-d]pyrimidin-2-amine]
0.631	≤ 100		CCOc1nc(Nc2cnn(C3CN(C)CCC3(F)F)c2C)nc2[nH]ccc12 (single isomer, unassigned) [Example E121, N-(1-(4,4-difluoro-1-methylpiperidin-3-yl)-5-methyl-1H-pyrazol-4-yl)-4-ethoxy-7H-pyrrolo[2,3-d]pyrimidin-2-amine]
31.6	≤ 100		CCOc1nc(Nc2cnn([C@H]3CCN(C4COC4)C[C@@H]3F)c2Cl)nc2[nH]ccc12 (single isomer, unassigned) [Example E104]
5.01			CCOc1nc(Nc2cnn(C3CCN(C4COC4)CC3(F)F)c2Cl)nc2[nH]ccc12 (single isomer, unassigned) [Example E134, N-(5-chloro-1-(3,3-difluoro-1-(oxetan-3-yl)piperidin-4-yl)-1H-pyrazol-4-yl)-4-ethoxy-7H-pyrrolo[2,3-d]pyrimidin-2-amine]
0.794			CCOc1nc(Nc2cnn(C3CN(C4COC4)CCC3(F)F)c2Cl)nc2[nH]ccc12 (single isomer, unassigned) [Example E124, N-(5-chloro-1-(4,4-difluoro-1-(oxetan-3-yl)piperidin-3-yl)-1H-pyrazol-4-yl)-4-ethoxy-7H-pyrrolo[2,3-d]pyrimidin-2-amine]
25.1	≤ 100		CCOc1nc(Nc2cnn([C@@H]3CCN(C4COC4)C[C@H]3F)c2Cl)nc2[nH]ccc12 (single isomer, unassigned) [Example E105]
15.8	≤ 100		CCOc1nc(Nc2cnn(C3CN(C4COC4)CCO3)c2Cl)nc2[nH]ccc12 (single isomer, unassigned) [Example E141, N-(5-chloro-1-(4-(oxetan-3-yl)morpholin-2-yl)-1H-pyrazol-4-yl)-4-ethoxy-7H-pyrrolo[2,3-d]pyrimidin-2-amine]
